Results taken from PubChem BioAssay AID2060904 (Molecular Pharmacology Branch, DTP, NCI, 2025).

Test system: 349418-098-R-PDC complex spheroid viability
Test: Anticancer human tumor 349418-098-R-PDC patient-derived lung adenocarcinoma cell line growth inhibition [RAS]
Conditions: for IC50: curve of first compound; for viability, T/C: stronger effect = lower value
Method in brief: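 Agents were tested in combination matrices in half-log decrements from a top concentration at or near clinical Cmax (10 microM if undetermined). Targets were multi-cell spheroids of tumour lines plus HUVEC and MSC stromal cells.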

[1] = second compound 0.00316 µM, first compound 0.0316 µM
[2] = second compound 0.00316 µM, first compound 0.1 µM
[3] = second compound 0.00316 µM, first compound 0.316 µM
[4] = second compound 0.00316 µM, first compound 1 µM
[5] = second compound 0.01 µM, first compound 0.0316 µM
[6] = second compound 0.01 µM, first compound 0.1 µM
[7] = second compound 0.01 µM, first compound 0.316 µM
[8] = second compound 0.01 µM, first compound 1 µM
[9] = second compound 0.0316 µM, first compound 0.0316 µM
[10] = second compound 0.0316 µM, first compound 0.1 µM
[11] = second compound 0.0316 µM, first compound 0.316 µM
[12] = second compound 0.0316 µM, first compound 1 µM
[13] = second compound 0.1 µM, first compound 0.0316 µM
[14] = second compound 0.1 µM, first compound 0.1 µM
[15] = second compound 0.1 µM, first compound 0.316 µM
[16] = second compound 0.1 µM, first compound 1 µM
[17] = second compound 0.316 µM, first compound 0.0316 µM
[18] = second compound 0.316 µM, first compound 0.1 µM
[19] = second compound 0.316 µM, first compound 0.316 µM
[20] = second compound 0.316 µM, first compound 1 µM
[21] = second compound 1 µM, first compound 0.0316 µM
[22] = second compound 1 µM, first compound 0.1 µM
[23] = second compound 1 µM, first compound 0.316 µM
[24] = second compound 1 µM, first compound 1 µM
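Note: spheroids exposed to compound for seven days before viability readout.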

Which IC50 (second compound 0.00316 µM) does the source give for `CC(Nc1ccc2c(c1)OCCn1cc(N3C(=O)OCC3C(F)F)nc1-2)C(N)=O` (centres undefined) + C=CC(=O)N1CCN(c2nc(OCC3CCCN3C)nc3c(F)c(-c4nc(N)cc(C)c4C(F)(F)F)c(Cl)cc23)C(C)C1 here?
The IC50 was 72.4 nM.

And the IC50 (second compound 0.01 µM)?
The IC50 was 149 nM.

And the IC50 (second compound 0.0316 µM)?
The IC50 was 195 nM.

And the IC50 (second compound 0.1 µM)?
The IC50 was 114 nM.

What about the IC50 (second compound 0.316 µM) of the same molecule?
The IC50 was 57.8 nM.

And the IC50 (second compound 1 µM)?
Its IC50 is 129 nM.

What about the viability, T/C [1] of the same molecule?
Its viability, T/C is 66%.

And the viability, T/C [2]?
The viability, T/C was 44.4%.

And the viability, T/C [3]?
Its viability, T/C is 23.6%.

What about the viability, T/C [4] of the same molecule?
Its viability, T/C is 16.7%.

And the viability, T/C (second compound 0.00316 µM, first compound 3.16 µM)?
Its viability, T/C is 14.8%.

What about the viability, T/C (second compound 0.00316 µM, first compound 10 µM) of the same molecule?
Its viability, T/C is 9.03%.

And the viability, T/C [5]?
The viability, T/C was 82%.

What about the viability, T/C [6] of the same molecule?
Its viability, T/C is 57.6%.

And the viability, T/C [7]?
Its viability, T/C is 36.1%.

What about the viability, T/C [8] of the same molecule?
The viability, T/C was 17.8%.

And the viability, T/C (second compound 0.01 µM, first compound 3.16 µM)?
Its viability, T/C is 14.9%.

And the viability, T/C (second compound 0.01 µM, first compound 10 µM)?
The viability, T/C was 8.95%.

What about the viability, T/C [9] of the same molecule?
Its viability, T/C is 91%.

And the viability, T/C [10]?
Its viability, T/C is 69.8%.

And the viability, T/C [11]?
The viability, T/C was 36%.

What about the viability, T/C [12] of the same molecule?
The viability, T/C was 17.1%.

And the viability, T/C (second compound 0.0316 µM, first compound 3.16 µM)?
The viability, T/C was 12.2%.

And the viability, T/C (second compound 0.0316 µM, first compound 10 µM)?
Its viability, T/C is 13%.

What about the viability, T/C [13] of the same molecule?
The viability, T/C was 46.2%.

And the viability, T/C [14]?
Its viability, T/C is 58.9%.

What about the viability, T/C [15] of the same molecule?
The viability, T/C was 30%.

What about the viability, T/C [16] of the same molecule?
The viability, T/C was 19.3%.

What about the viability, T/C (second compound 0.1 µM, first compound 3.16 µM) of the same molecule?
Its viability, T/C is 17.6%.

And the viability, T/C (second compound 0.1 µM, first compound 10 µM)?
Its viability, T/C is 11.4%.

What about the viability, T/C [17] of the same molecule?
Its viability, T/C is 55.8%.

What about the viability, T/C [18] of the same molecule?
Its viability, T/C is 44.9%.

What about the viability, T/C [19] of the same molecule?
The viability, T/C was 30.3%.

And the viability, T/C [20]?
Its viability, T/C is 19.4%.

And the viability, T/C (second compound 0.316 µM, first compound 3.16 µM)?
Its viability, T/C is 14%.

And the viability, T/C (second compound 0.316 µM, first compound 10 µM)?
The viability, T/C was 10.7%.

What about the viability, T/C [21] of the same molecule?
Its viability, T/C is 61.2%.

And the viability, T/C [22]?
Its viability, T/C is 57.3%.

And the viability, T/C [23]?
Its viability, T/C is 28.4%.

And the viability, T/C [24]?
The viability, T/C was 24.4%.

What about the viability, T/C (second compound 1 µM, first compound 3.16 µM) of the same molecule?
The viability, T/C was 16.6%.

And the viability, T/C (second compound 1 µM, first compound 10 µM)?
Its viability, T/C is 11.3%.

`O=C(c1ccc(F)c(F)c1Nc1ccc(I)cc1F)N1CC(O)([C@@H]2CCCCN2)C1` + C=CC(=O)N1CCN(c2nc(OCC3CCCN3C)nc3c(F)c(-c4nc(N)cc(C)c4C(F)(F)F)c(Cl)cc23)C(C)C1 was tested. Which IC50 (second compound 0.00316 µM) did it give?
The IC50 was < 3.16 nM.

And the IC50 (second compound 0.01 µM)?
The IC50 was < 3.16 nM.

And the IC50 (second compound 0.0316 µM)?
The IC50 was < 3.16 nM.

And the IC50 (second compound 0.1 µM)?
Its IC50 is < 3.16 nM.

What about the IC50 (second compound 0.316 µM) of the same molecule?
The IC50 was < 3.16 nM.

And the IC50 (second compound 1 µM)?
The IC50 was < 3.16 nM.

What about the viability, T/C (second compound 0.00316 µM, first compound 0.00316 µM) of the same molecule?
The viability, T/C was 39.9%.

What about the viability, T/C (second compound 0.00316 µM, first compound 0.01 µM) of the same molecule?
The viability, T/C was 32.3%.

What about the viability, T/C [1] of the same molecule?
The viability, T/C was 28.5%.

And the viability, T/C [2]?
Its viability, T/C is 12.9%.

What about the viability, T/C [3] of the same molecule?
The viability, T/C was 5.88%.

And the viability, T/C [4]?
Its viability, T/C is 4.12%.

What about the viability, T/C (second compound 0.01 µM, first compound 0.00316 µM) of the same molecule?
The viability, T/C was 37.7%.

And the viability, T/C (second compound 0.01 µM, first compound 0.01 µM)?
Its viability, T/C is 28.2%.

What about the viability, T/C [5] of the same molecule?
Its viability, T/C is 24.3%.

What about the viability, T/C [6] of the same molecule?
Its viability, T/C is 13.2%.

What about the viability, T/C [7] of the same molecule?
The viability, T/C was 7.23%.

What about the viability, T/C [8] of the same molecule?
Its viability, T/C is 4.54%.

What about the viability, T/C (second compound 0.0316 µM, first compound 0.00316 µM) of the same molecule?
Its viability, T/C is 39%.

And the viability, T/C (second compound 0.0316 µM, first compound 0.01 µM)?
The viability, T/C was 32.8%.

What about the viability, T/C [9] of the same molecule?
Its viability, T/C is 28.5%.

What about the viability, T/C [10] of the same molecule?
The viability, T/C was 15.1%.

What about the viability, T/C [11] of the same molecule?
The viability, T/C was 6.99%.

And the viability, T/C [12]?
The viability, T/C was 4.79%.

What about the viability, T/C (second compound 0.1 µM, first compound 0.00316 µM) of the same molecule?
Its viability, T/C is 36.4%.

And the viability, T/C (second compound 0.1 µM, first compound 0.01 µM)?
Its viability, T/C is 33.6%.

And the viability, T/C [13]?
Its viability, T/C is 26.6%.

What about the viability, T/C [14] of the same molecule?
Its viability, T/C is 13.5%.

What about the viability, T/C [15] of the same molecule?
The viability, T/C was 6.66%.

And the viability, T/C [16]?
The viability, T/C was 4.97%.

And the viability, T/C (second compound 0.316 µM, first compound 0.00316 µM)?
The viability, T/C was 29.1%.

And the viability, T/C (second compound 0.316 µM, first compound 0.01 µM)?
The viability, T/C was 32.5%.

And the viability, T/C [17]?
The viability, T/C was 32.4%.

What about the viability, T/C [18] of the same molecule?
Its viability, T/C is 12%.

And the viability, T/C [19]?
The viability, T/C was 7.61%.

What about the viability, T/C [20] of the same molecule?
Its viability, T/C is 5.27%.

What about the viability, T/C (second compound 1 µM, first compound 0.00316 µM) of the same molecule?
The viability, T/C was 42.3%.

And the viability, T/C (second compound 1 µM, first compound 0.01 µM)?
The viability, T/C was 38.8%.

And the viability, T/C [21]?
The viability, T/C was 26.8%.

What about the viability, T/C [22] of the same molecule?
The viability, T/C was 16.4%.

What about the viability, T/C [23] of the same molecule?
Its viability, T/C is 7.89%.

What about the viability, T/C [24] of the same molecule?
The viability, T/C was 5%.
